Data: the supplement of paper PMC11208160

Assay: recombinant UMI read abundance after kanamycin selection (control-corrected) (log10(CPM+1)); higher = more efficient recombination; extreme values may be limits of the assay; sequences stand for … in AGTGCAGAGAAAATCGGCCAGTTTTCTCTGCCTGCAGTCCGCATGCCGTGGGACCCCTTGGGTTCTAACCTGTTGCCTAGATTTATGCAGCGGACTGCCTTTCTCCCAAAGTGATAAACCGG…AGGTTGGTTTCACT; site = the 11-nt donor
Procedure, shortened: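 Reported values are log10(CPM+1) from a pooled Escherichia coli screen of donor and donor-binding-loop pairs for the IS621 bridge recombinase. Selection used IPTG (0.07 mM) plus kanamycin, against unselected plating, each in two replicates. Recombinant UMIs were amplified across the donor–target junction, sequenced, converted to CPM, averaged over replicates and scaled by control-derived factors.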
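Further: IS621 bridge recombinase in Escherichia coli cells against a fixed T5 target plasmid.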

Sequence | recombinant UMI read abundance (log10)
TCCGCGACATGGACCGGTTTTCCCGGTAATCCGTATTTGTA (site TCCGCGACTTA) | 0.0159
TCCGCTACATGGACCGGTTTTCCCGGTAATCCGTATTTGTC (site TCCGCTACTGA) | 0
TCCGGGCCATGGACCGGTTTTCCCGGTAATCCGTATTTGGG (site TCCGGGCCTCC) | 0.0269
TCCTACGCATGGACCGGTTTTCCCGGTAATCCGTATTTGAA (site TCCTACGCTTT) | 0.0256
TCCTACTCATGGACCGGTTTTCCCGGTAATCCGTATTTGCA (site TCATACTCTTG) | 0
TCCTACTCATGGACCGGTTTTCCCGGTAATCCGTATTTGCA (site TCCTACTCTTG) | 0
TCCTACTCATGGACCGGTTTTCCCGGTAATCCGTATTTGCA (site TCGTACTCTTG) | 0
TCCTACTCATGGACCGGTTTTCCCGGTAATCCGTATTTGCA (site TCTTACTCTTG) | 0
TCCTAGGCATGGACCGGTTTTCCCGGTAATCCGTATTTGGT (site TACTAGGCTAC) | 0.0272
TCCTAGGCATGGACCGGTTTTCCCGGTAATCCGTATTTGGT (site TCCTAGGCTAC) | 0.0125
TCCTAGGCATGGACCGGTTTTCCCGGTAATCCGTATTTGGT (site TGCTAGGCTAC) | 0.0178
TCCTAGGCATGGACCGGTTTTCCCGGTAATCCGTATTTGGT (site TTCTAGGCTAC) | 0.0363
TCCTGCCCATGGACCGGTTTTCCCGGTAATCCGTATTTGCT (site TCCTGCCCTAG) | 0
TCCTGGCCATGGACCGGTTTTCCCGGTAATCCGTATTTGTG (site TCCTGGCCTCA) | 0.00405
TCCTGTTCATGGACCGGTTTTCCCGGTAATCCGTATTTGTC (site TCCTGTTCTGA) | 0
TCCTTCTCATGGACCGGTTTTCCCGGTAATCCGTATTTGGG (site ACCTTCTCTCC) | 0.0101
TCCTTCTCATGGACCGGTTTTCCCGGTAATCCGTATTTGGG (site CCCTTCTCTCC) | 0.00366
TCCTTCTCATGGACCGGTTTTCCCGGTAATCCGTATTTGGG (site GCCTTCTCTCC) | 0.104
TCCTTCTCATGGACCGGTTTTCCCGGTAATCCGTATTTGGG (site TCCTTCTCTCC) | 0.0162
TCCTTTACATGGACCGGTTTTCCCGGTAATCCGTATTTGTT (site TCCTTTACTAA) | 0.0163
TCGAACGCATGGACCGGTTTTCCCGGTAATCCGTATTTGCG (site TCGAACGCTCG) | 0.00434
TCGAAGACATGGACCGGTTTTCCCGGTAATCCGTATTTGCA (site AGGAAGACTTG) | 0.13
TCGAAGACATGGACCGGTTTTCCCGGTAATCCGTATTTGCA (site TCGAAGACTTG) | 1.88
TCGAATACATGGACCGGTTTTCCCGGTAATCCGTATTTGCA (site TAGAATACTTG) | 0.211
TCGAATACATGGACCGGTTTTCCCGGTAATCCGTATTTGCA (site TCGAATACTTG) | 0

Sequence | recombinant UMI read abundance (log10)
TCGAATACATGGACCGGTTTTCCCGGTAATCCGTATTTGCA (site TGGAATACTTG) | 0.0214
TCGAATACATGGACCGGTTTTCCCGGTAATCCGTATTTGCA (site TTGAATACTTG) | 0
TCGAATCCATGGACCGGTTTTCCCGGTAATCCGTATTTGAG (site TCGAATCCTCT) | 0.516
TCGACACCATGGACCGGTTTTCCCGGTAATCCGTATTTGGA (site TCGACACCTTC) | 0.0336
TCGACTTCATGGACCGGTTTTCCCGGTAATCCGTATTTGTG (site TCGACTTCTCA) | 0
TCGATTACATGGACCGGTTTTCCCGGTAATCCGTATTTGGA (site TCGATTACTTC) | 0.277
TCGCACACATGGACCGGTTTTCCCGGTAATCCGTATTTGCG (site TCGCACACTCG) | 0.00409
TCGCCTACATGGACCGGTTTTCCCGGTAATCCGTATTTGTG (site TCGCCTACTCA) | 0.00919
TCGGCTACATGGACCGGTTTTCCCGGTAATCCGTATTTGCC (site TCGGCTACTGG) | 0
TCGGGCGCATGGACCGGTTTTCCCGGTAATCCGTATTTGTC (site TCGGGCGCTGA) | 2.19
TCGGGTGCATGGACCGGTTTTCCCGGTAATCCGTATTTGGA (site TCGGGTGCTTC) | 0.157
TCGGTTACATGGACCGGTTTTCCCGGTAATCCGTATTTGTT (site TCGGTTACTAA) | 0.835
TCGTACTCATGGACCGGTTTTCCCGGTAATCCGTATTTGCA (site TCATACTCTTG) | 2.44
TCGTACTCATGGACCGGTTTTCCCGGTAATCCGTATTTGCA (site TCCTACTCTTG) | 2.28
TCGTACTCATGGACCGGTTTTCCCGGTAATCCGTATTTGCA (site TCGTACTCTTG) | 2.38
TCGTACTCATGGACCGGTTTTCCCGGTAATCCGTATTTGCA (site TCTTACTCTTG) | 2.29
TCGTCATCATGGACCGGTTTTCCCGGTAATCCGTATTTGAC (site TCGTCATCTGT) | 0
TCGTCGCCATGGACCGGTTTTCCCGGTAATCCGTATTTGCA (site TCGTCGCCTTG) | 0.00504
TCGTTAGCATGGACCGGTTTTCCCGGTAATCCGTATTTGTG (site ACGTTAGCTCA) | 0.00928
TCGTTAGCATGGACCGGTTTTCCCGGTAATCCGTATTTGTG (site CCGTTAGCTCA) | 0
TCGTTAGCATGGACCGGTTTTCCCGGTAATCCGTATTTGTG (site GCGTTAGCTCA) | 0.109
TCGTTAGCATGGACCGGTTTTCCCGGTAATCCGTATTTGTG (site TCGTTAGCTCA) | 0.255
TCGTTGTCATGGACCGGTTTTCCCGGTAATCCGTATTTGAA (site TCGTTGTCTTT) | 0.876
TCGTTGTCATGGACCGGTTTTCCCGGTAATCCGTATTTGTC (site TCGTTGTCTGA) | 0.41
TCGTTTACATGGACCGGTTTTCCCGGTAATCCGTATTTGCT (site ACGTTTACTAG) | 0

Sequence | recombinant UMI read abundance (log10)
TCGTTTACATGGACCGGTTTTCCCGGTAATCCGTATTTGCT (site CCGTTTACTAG) | 0
TCGTTTACATGGACCGGTTTTCCCGGTAATCCGTATTTGCT (site GCGTTTACTAG) | 0
TCGTTTACATGGACCGGTTTTCCCGGTAATCCGTATTTGCT (site TCGTTTACTAG) | 1.68
TCTAACACATGGACCGGTTTTCCCGGTAATCCGTATTTGTC (site TCTAACACTGA) | 0
TCTAATACATGGACCGGTTTTCCCGGTAATCCGTATTTGGC (site ACTAATACTGC) | 0
TCTAATACATGGACCGGTTTTCCCGGTAATCCGTATTTGGC (site CCTAATACTGC) | 0
TCTAATACATGGACCGGTTTTCCCGGTAATCCGTATTTGGC (site GCTAATACTGC) | 0
TCTAATACATGGACCGGTTTTCCCGGTAATCCGTATTTGGC (site TCTAATACTGC) | 0
TCTAATACATGGACCGGTTTTCCCGGTAATCCGTATTTGGT (site TCTAATACTAC) | 0.0331
TCTAATTCATGGACCGGTTTTCCCGGTAATCCGTATTTGCC (site TCAAATTCTGG) | 0
TCTAATTCATGGACCGGTTTTCCCGGTAATCCGTATTTGCC (site TCCAATTCTGG) | 0
TCTAATTCATGGACCGGTTTTCCCGGTAATCCGTATTTGCC (site TCGAATTCTGG) | 0
TCTAATTCATGGACCGGTTTTCCCGGTAATCCGTATTTGCC (site TCTAATTCTGG) | 0
TCTACCGCATGGACCGGTTTTCCCGGTAATCCGTATTTGCG (site TCAACCGCTCG) | 0.00715
TCTACCGCATGGACCGGTTTTCCCGGTAATCCGTATTTGCG (site TCCACCGCTCG) | 0.0035
TCTACCGCATGGACCGGTTTTCCCGGTAATCCGTATTTGCG (site TCGACCGCTCG) | 0.0889
TCTACCGCATGGACCGGTTTTCCCGGTAATCCGTATTTGCG (site TCTACCGCTCG) | 0.0133
TCTAGAACATGGACCGGTTTTCCCGGTAATCCGTATTTGTC (site TCTAGAACTGA) | 0
TCTAGGCCATGGACCGGTTTTCCCGGTAATCCGTATTTGGA (site TCTAGGCCTTC) | 0.0125
TCTAGTGCATGGACCGGTTTTCCCGGTAATCCGTATTTGGT (site ACTAGTGCTAC) | 0.0111
TCTAGTGCATGGACCGGTTTTCCCGGTAATCCGTATTTGGT (site CCTAGTGCTAC) | 0.229
TCTAGTGCATGGACCGGTTTTCCCGGTAATCCGTATTTGGT (site GCTAGTGCTAC) | 0
TCTAGTGCATGGACCGGTTTTCCCGGTAATCCGTATTTGGT (site TCTAGTGCTAC) | 0.0256
TCTATAACATGGACCGGTTTTCCCGGTAATCCGTATTTGGG (site TCTATAACTCC) | 0.0262
TCTATAGCATGGACCGGTTTTCCCGGTAATCCGTATTTGAC (site TCTATAGCTGT) | 0
